In PubChem BioAssay (NCI):
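How tested: cells in 96-well plates exposed to compound for 48 hours at five concentrations. At the GI50, growth is halved. At the TGI there is no net growth.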

How the values were obtained:
Assay in all cases: NCI tumour cell line growth inhibition, 48 h
HT29 colon = test system: HT29 colon
OVCAR-3 ovarian = test system: OVCAR-3 ovarian
TK-10 renal = test system: TK-10 renal
UACC-257 melanoma = test system: UACC-257 melanoma
SK-MEL-2 melanoma = test system: SK-MEL-2 melanoma
HCT-15 colon = test system: HCT-15 colon
NCI-H460 lung = test system: NCI-H460 lung
786-0 renal = test system: 786-0 renal
MDA-MB-435 = test system: MDA-MB-435
NCI-H522 lung = test system: NCI-H522 lung
OVCAR-4 ovarian = test system: OVCAR-4 ovarian
SK-MEL-5 melanoma = test system: SK-MEL-5 melanoma
UO-31 renal = test system: UO-31 renal
HL-60(TB) leukemia = test system: HL-60(TB) leukemia
HOP-62 NSCLC = test system: HOP-62 NSCLC
SR leukemia = test system: SR leukemia
CAKI-1 renal = test system: CAKI-1 renal
HS 578T breast = test system: HS 578T breast
RXF 393 renal = test system: RXF 393 renal
HOP-92 NSCLC = test system: HOP-92 NSCLC
CCRF-CEM leukemia = test system: CCRF-CEM leukemia
IGROV1 ovarian = test system: IGROV1 ovarian
K-562 leukemia = test system: K-562 leukemia
PC-3 prostate = test system: PC-3 prostate
KM12 colon = test system: KM12 colon
LOX IMVI melanoma = test system: LOX IMVI melanoma
OVCAR-5 ovarian = test system: OVCAR-5 ovarian
MOLT-4 leukemia = test system: MOLT-4 leukemia
SK-MEL-28 melanoma = test system: SK-MEL-28 melanoma
SF-268 CNS = test system: SF-268 CNS
COLO 205 colon = test system: COLO 205 colon
SN12C renal = test system: SN12C renal
UACC-62 melanoma = test system: UACC-62 melanoma
SNB-19 CNS = test system: SNB-19 CNS
SW-620 colon = test system: SW-620 colon
NCI-H226 lung = test system: NCI-H226 lung
MALME-3M melanoma = test system: MALME-3M melanoma
MDA-MB-231 breast = test system: MDA-MB-231 breast
SK-OV-3 ovarian = test system: SK-OV-3 ovarian
U251 CNS = test system: U251 CNS
HCC-2998 colon = test system: HCC-2998 colon
HCT-116 colon = test system: HCT-116 colon
A498 renal = test system: A498 renal
RPMI-8226 leukemia = test system: RPMI-8226 leukemia
EKVX NSCLC = test system: EKVX NSCLC
ACHN renal = test system: ACHN renal
DU-145 prostate = test system: DU-145 prostate
M14 melanoma = test system: M14 melanoma
SNB-75 CNS = test system: SNB-75 CNS
SF-539 CNS = test system: SF-539 CNS
OVCAR-8 ovarian = test system: OVCAR-8 ovarian
NCI-H23 lung = test system: NCI-H23 lung
T-47D breast = test system: T-47D breast
BT-549 breast = test system: BT-549 breast
MCF7 breast = test system: MCF7 breast
SF-295 CNS = test system: SF-295 CNS
NCI/ADR-RES ovarian = test system: NCI/ADR-RES ovarian
A549 NSCLC = test system: A549 NSCLC

With `N#Cc1nc(-c2cccnc2)oc1N` the TGI (HT29 colon) was over 100 µM, the TGI (OVCAR-3 ovarian) was over 100 µM and the TGI (TK-10 renal) was over 100 µM. For the same molecule, the TGI (UACC-257 melanoma) was over 100 µM, the TGI (SK-MEL-2 melanoma) was over 100 µM and the TGI (HCT-15 colon) was over 100 µM. The TGI (NCI-H460 lung) was over 100 µM, the TGI (786-0 renal) was over 100 µM and the TGI (MDA-MB-435) was over 100 µM. For the same molecule, the TGI (NCI-H522 lung) was over 100 µM, the TGI (OVCAR-4 ovarian) was over 100 µM and the TGI (SK-MEL-5 melanoma) was over 100 µM. For the same molecule, the TGI (UO-31 renal) was over 100 µM, the TGI (HL-60(TB) leukemia) was over 100 µM and the TGI (HOP-62 NSCLC) was over 100 µM. It also gave a TGI (SR leukemia) of over 100 µM, a TGI (CAKI-1 renal) of over 100 µM and a TGI (HS 578T breast) of over 100 µM. The TGI (RXF 393 renal) was over 100 µM, the TGI (HOP-92 NSCLC) was over 100 µM and the TGI (CCRF-CEM leukemia) was over 100 µM. It also gave a TGI (IGROV1 ovarian) of over 100 µM, a TGI (K-562 leukemia) of over 100 µM and a TGI (PC-3 prostate) of over 100 µM. For the same molecule, the TGI (KM12 colon) was over 100 µM, the TGI (LOX IMVI melanoma) was over 100 µM and the TGI (OVCAR-5 ovarian) was over 100 µM. It also gave a TGI (MOLT-4 leukemia) of over 100 µM, a TGI (SK-MEL-28 melanoma) of over 100 µM and a TGI (SF-268 CNS) of over 100 µM. It also gave a TGI (COLO 205 colon) of over 100 µM, a TGI (SN12C renal) of over 100 µM and a TGI (UACC-62 melanoma) of over 100 µM. It also gave a TGI (SNB-19 CNS) of over 100 µM, a TGI (SW-620 colon) of over 100 µM and a TGI (NCI-H226 lung) of over 100 µM. It also gave a TGI (MALME-3M melanoma) of over 100 µM, a TGI (MDA-MB-231 breast) of over 100 µM and a TGI (SK-OV-3 ovarian) of over 100 µM. For the same molecule, the TGI (U251 CNS) was over 100 µM, the TGI (HCC-2998 colon) was over 100 µM and the TGI (HCT-116 colon) was over 100 µM. The TGI (A498 renal) was over 100 µM, the TGI (RPMI-8226 leukemia) was over 100 µM and the TGI (EKVX NSCLC) was over 100 µM. The TGI (ACHN renal) was over 100 µM and the TGI (DU-145 prostate) was over 100 µM.
With `O=[N+]([O-])c1cc([N+](=O)[O-])c(N2CCCC2)cc1NN=C(c1ccc(O)cc1)c1ccc(O)cc1` the GI50 (HT29 colon) was 3.41 µM, the TGI (HT29 colon) was 14.5 µM and the GI50 (OVCAR-3 ovarian) was 2.41 µM. It also gave a TGI (OVCAR-3 ovarian) of 7.65 µM, a GI50 (TK-10 renal) of 11.6 µM and a TGI (TK-10 renal) of 35.8 µM. For the same molecule, the GI50 (UACC-257 melanoma) was 13.6 µM, the TGI (UACC-257 melanoma) was 26.9 µM and the GI50 (SK-MEL-2 melanoma) was 7.04 µM. The TGI (SK-MEL-2 melanoma) was 24.3 µM, the GI50 (HCT-15 colon) was 3.98 µM and the TGI (HCT-15 colon) was 15.9 µM. It also gave a GI50 (NCI-H460 lung) of 4.21 µM, a TGI (NCI-H460 lung) of 15.9 µM and a GI50 (M14 melanoma) of 9.62 µM. The TGI (M14 melanoma) was 22.1 µM, the GI50 (786-0 renal) was 6.88 µM and the TGI (786-0 renal) was 19.8 µM. The GI50 (SNB-75 CNS) was 1.34 µM, the TGI (SNB-75 CNS) was 6.4 µM and the GI50 (MDA-MB-435) was 2.52 µM. For the same molecule, the TGI (MDA-MB-435) was 14.4 µM, the GI50 (NCI-H522 lung) was 12.8 µM and the TGI (NCI-H522 lung) was 45.6 µM. It also gave a GI50 (SF-539 CNS) of 12.4 µM, a TGI (SF-539 CNS) of 24.8 µM and a GI50 (OVCAR-8 ovarian) of 9.86 µM. For the same molecule, the TGI (OVCAR-8 ovarian) was 60.5 µM, the GI50 (OVCAR-4 ovarian) was 4.03 µM and the TGI (OVCAR-4 ovarian) was 40 µM. The GI50 (SK-MEL-5 melanoma) was 2.73 µM, the TGI (SK-MEL-5 melanoma) was 15.3 µM and the GI50 (UO-31 renal) was 5.54 µM. It also gave a TGI (UO-31 renal) of 18.5 µM, a GI50 (HL-60(TB) leukemia) of 7.89 µM and a TGI (HL-60(TB) leukemia) of 37.5 µM. For the same molecule, the GI50 (NCI-H23 lung) was 9.46 µM, the TGI (NCI-H23 lung) was 23.3 µM and the GI50 (HOP-62 NSCLC) was 10.3 µM. It also gave a TGI (HOP-62 NSCLC) of 24.5 µM, a GI50 (SR leukemia) of 5.98 µM and a TGI (SR leukemia) of 30.9 µM. For the same molecule, the GI50 (CAKI-1 renal) was 6.23 µM, the TGI (CAKI-1 renal) was 21.1 µM and the GI50 (T-47D breast) was 0.681 µM. For the same molecule, the TGI (T-47D breast) was 4.76 µM, the GI50 (RXF 393 renal) was 3.12 µM and the TGI (RXF 393 renal) was 12.8 µM. For the same molecule, the GI50 (HOP-92 NSCLC) was 10.1 µM, the TGI (HOP-92 NSCLC) was 26.4 µM and the GI50 (CCRF-CEM leukemia) was 2.17 µM. For the same molecule, the TGI (CCRF-CEM leukemia) was 21.5 µM, the GI50 (IGROV1 ovarian) was 3.96 µM and the TGI (IGROV1 ovarian) was 16.9 µM. For the same molecule, the GI50 (K-562 leukemia) was 2.35 µM, the TGI (K-562 leukemia) was 21 µM and the GI50 (PC-3 prostate) was 6.07 µM. For the same molecule, the TGI (PC-3 prostate) was over 100 µM, the GI50 (KM12 colon) was 3.51 µM and the TGI (KM12 colon) was 14.1 µM. For the same molecule, the GI50 (LOX IMVI melanoma) was 3.28 µM, the TGI (LOX IMVI melanoma) was 14.6 µM and the GI50 (OVCAR-5 ovarian) was 17.2 µM. The TGI (OVCAR-5 ovarian) was 30.9 µM, the GI50 (BT-549 breast) was 18.5 µM and the TGI (BT-549 breast) was 75.3 µM. It also gave a GI50 (MOLT-4 leukemia) of 3.36 µM, a TGI (MOLT-4 leukemia) of over 100 µM and a GI50 (SK-MEL-28 melanoma) of 3.39 µM. It also gave a TGI (SK-MEL-28 melanoma) of 13.8 µM, a GI50 (SF-268 CNS) of 2.99 µM and a TGI (SF-268 CNS) of 12.6 µM. It also gave a GI50 (COLO 205 colon) of 3.79 µM, a TGI (COLO 205 colon) of 15.5 µM and a GI50 (SN12C renal) of 10.1 µM. The TGI (SN12C renal) was 23.3 µM, the GI50 (UACC-62 melanoma) was 5.82 µM and the TGI (UACC-62 melanoma) was 19 µM. The GI50 (SNB-19 CNS) was 7.06 µM, the TGI (SNB-19 CNS) was 21.6 µM and the GI50 (MCF7 breast) was 3.55 µM. For the same molecule, the TGI (MCF7 breast) was 20.1 µM, the GI50 (SW-620 colon) was 9.15 µM and the TGI (SW-620 colon) was 21.2 µM. For the same molecule, the GI50 (NCI-H226 lung) was 16.9 µM, the TGI (NCI-H226 lung) was 45.8 µM and the GI50 (MALME-3M melanoma) was 14.9 µM. For the same molecule, the TGI (MALME-3M melanoma) was 35 µM, the GI50 (MDA-MB-231 breast) was 4.01 µM and the TGI (MDA-MB-231 breast) was 16 µM. The GI50 (SK-OV-3 ovarian) was 7.44 µM, the TGI (SK-OV-3 ovarian) was 19.8 µM and the GI50 (U251 CNS) was 4.81 µM. The TGI (U251 CNS) was 18.3 µM, the GI50 (HCC-2998 colon) was 4.12 µM and the TGI (HCC-2998 colon) was 14.5 µM. The GI50 (SF-295 CNS) was 1.48 µM, the TGI (SF-295 CNS) was 5.36 µM and the GI50 (HCT-116 colon) was 4.54 µM. The TGI (HCT-116 colon) was 16.5 µM, the GI50 (A498 renal) was 5.34 µM and the TGI (A498 renal) was 16.7 µM. The GI50 (RPMI-8226 leukemia) was 3.78 µM, the TGI (RPMI-8226 leukemia) was 24 µM and the GI50 (NCI/ADR-RES ovarian) was 13.6 µM. The TGI (NCI/ADR-RES ovarian) was 37.9 µM, the GI50 (EKVX NSCLC) was 0.508 µM and the TGI (EKVX NSCLC) was 23.9 µM. The GI50 (ACHN renal) was 2.31 µM, the TGI (ACHN renal) was 11.7 µM and the GI50 (A549 NSCLC) was 3.82 µM. The TGI (A549 NSCLC) was 16.4 µM, the GI50 (DU-145 prostate) was 7.43 µM and the TGI (DU-145 prostate) was 20.2 µM.
